{"source": "paper PMC9845330", "about": "(Communications Biology, 2023)", "key": {"[1]": {"test_system": "H1299 cells", "experiment": "Cell internalization by flow cytometry, absolute uptake (molecules per cell) of peptide-streptavidin-Alexa Fluor 647", "assay_type": "cell-based, human", "conditions": "for Molecules Internalized Per Cell: Average", "source_text": "Optimizing MGS4 as a monomer is efficient but the optimal valency of the truncated peptide may be different than that of the full-length peptide. The peptide was synthesized as a monomer (MGS4_V8), dimer (MGS4_V9), and tetramer (MGS4_V10). To obtain quantitative data, we moved from measuring the relative fluorescence of dye-labeled peptide to the determination of the average number of dye molecules internalized per cell. […] The dimer MGS4_V9 has an EC50 7-fold lower indicating there is a synergistic effect in going from a monomer to a dimer (Fig. 2a and Table 2). However, there is only a 2-fold decrease in going from a dimer to a tetrameric peptide (MGS4_V10). We also calculated the EC50 on three other NSCLC cell lines (Table 2 and Supplementary Figure 3). […] The average number of peptides internalized per cell at saturating conditions varies, with H1993 cells internalizing the highest number of peptides at all three valencies (Table 2). This is likely due to differing levels of receptor expression on the cell type. The average molecules internalized at 50 nM in one hour follows the same trend (Fig. 2b).\nNon-internalized peptide was removed, and the mean number of peptides internalized per cell was determined to calculate the EC50. Individual measurements are shown. The mean is shown as an “X”. Error bars, in black, represent standard error measurements and are below the height of the symbols in some cases. b The average number of peptide molecules per cell at 50 nM at 1 h was determined on four NSCLC cell lines and one normal human bronchial epithelial cell line (HBEC). Error bars represent SEM and individual data points are shown. c H1299 cells were incubated with 50 nM peptide-Streptavidin-Qdot605 for 1 h, removed, and replaced with normal growth media. After 24 h, cells were fixed, and counterstained with DAPI (blue). Representative maximally projected z-stacks for each group reveal no apparent difference in peptide internalization or localization. The scale bar represents 10 µm.\nBiotinylated peptide was conjugated to streptavidin-R-phycoerythrin or streptavidin-Alexa Fluor 647 (1:1 molar ratio) for 30 min. The open binding sites on streptavidin were quenched with RPMI 1640 and diluted to the indicated concentration. Tumor cells were grown to 90% confluency in a 12 well plate, then incubated with 500 µl peptide-dye conjugate at 37 °C. After 1 h, peptide was removed, and the cells were washed 3x with PBS (137 mM NaCl, 2.7 mM KCl, 10 mM Na2HPO4, 1.8 mM KH2PO4, pH 7.4), 2x with 0.1 M HCl-glycine pH2.2 in 0.9% NaCl, and 1x PBS rinse. Cells were removed by trypsinization. Flow cytometry was performed on a BD FACSCelesta, and data were analyzed on Flowing software. Cells were gated based on the forward and side scatter to include only viable cells and a minimum of 10,000 events were counted. A region containing <5% of the cells in the negative control was established, and relative peptide uptake by the mean fluorescence intensity of that population. For absolute peptide uptake per cell, a standard curve was generated using Quantum™ Alexa Fluor 647 microspheres (Bangs Laboratory, Fishers, IN). A representative linear regression showing the correlation of molecule equivalents soluble fluorophores (MESF) vs the mean fluorescence intensity (MFI) is shown in Supplemental Figure 6. Cells were gated based on the forward and side scatter to include only viable cells and a minimum of 10,000 events were counted. MFI was determined at 50% at peak height. Molecules internalized per cell were determined by the standard curve relating MESF to MFI and divided by the number dye molecules/MGS conjugate. An example is shown in supplemental Figure 7. GraphPad Prism® was used for non-linear regression curve fitting to calculate an EC50. Parameters and statistical analysis are provided (Supplementary Tables 2–6). Experiments were repeated a minimum of three times. […]"}, "[2]": {"experiment": "Stability in human serum", "assay_type": "in vitro ADME", "conditions": "100% human serum, 48 h, 37 °C, serum proteins precipitated, analytical HPLC, MALDI TOF/TOF MS", "protocol": "To address if acetylation is effective in reducing serum degradation of MGS4, acetylated (MGS4_V8) and non-acetylated (MGS4_V4) peptides were dissolved in human serum and incubated for 48 h at 37 °C. The peptides were monitored by analytical HPLC, and products were verified via MALDI TOF/TOF™ MS. […] Instead, a mixture of peptide fragments is detected, none of which correspond to the mass of the starting peptide (Supplemental Table 1 and Supplemental Fig. 2). The major products are shorter fragments corresponding to the loss of the five N-terminal amino acids. Fragments related to QSFYT-PEG11, SFYT-PEG11 and FYT-PEG11 are observed.\nSupplemental Figure 1. […]\nM GS4_V4 (non-acetylated, panel a) and M GS4_V8 (acetylated, panel b ) were incubated in 100% human serum for 0 and 48-hours. Serum proteins were precipitated, and the peptide was analyzed by analytical\nHPLC. The mass of the peptide and degradation products were determined by MALDI MS and are […]\nMGS4_V8, MGS4_V9, or MGS4_V10 were conjugated with streptavidin-Alexa Fluor 650 and were incubated with the indicated cell line for 1 hour. Non-internalized peptide was rem ov ed, and the mean number of peptides internalized per cell was determined to calculate the EC50. […]\nSupplemental Figure 4 : Peptide-Streptavidin conjugates are nontoxic to cells. a. […] After 72 hours, viability was measured. […]"}}, "note": "Non-standard residues stand in square brackets, D forms with d. Residues, ends and D or L forms follow the SMILES beside them. *: point of attachment. X1 = O=C(CCCC[C@@H]1SC[C@@H]2NC(=O)N[C@@H]21)NCCCOCCOCCOCCCN*; PEG12 = NCCOCCOCCOCCOCCOCCOCCOCCOCCOCCOCCOCCOCCC(=O)O", "data": [{"smiles": "CC(=O)N[C@@H](Cc1ccccc1)C(=O)N[C@@H](Cc1c[nH]cn1)C(=O)N[C@@H](C)C(=O)N[C@H](C(=O)N1CCC[C@H]1C(=O)N[C@@H](CCC(N)=O)C(=O)N[C@@H](CO)C(=O)N[C@@H](Cc1ccccc1)C(=O)N[C@@H](Cc1ccc(O)cc1)C(=O)N[C@H](C(=O)NCCOCCOCCOCCOCCOCCOCCOCCOCCOCCOCCOCCOCCC(=O)N[C@@H](CCC(=O)NCCCOCCOCCOCCCNC(=O)CCCC[C@@H]1SC[C@@H]2NC(=O)N[C@@H]21)C(N)=O)[C@@H](C)O)C(C)C", "note": "[MGS4_V8] (Ac-FHAVPQSFYT[PEG12]E(X1)-NH2)", "values": [{"measurement": "Molecules Internalized Per Cell", "setting": "[1]; 0.01 nM", "result": 0}, {"measurement": "Molecules Internalized Per Cell", "setting": "[1]; 1 nM", "result": 88}, {"measurement": "Molecules Internalized Per Cell", "setting": "[1]; 10 nM", "result": 3648}, {"measurement": "Molecules Internalized Per Cell", "setting": "[1]; 20 nM", "result": 3316}, {"measurement": "Molecules Internalized Per Cell", "setting": "[1]; 30 nM", "result": 10700}, {"measurement": "Molecules Internalized Per Cell", "setting": "[1]; 40 nM", "result": 21020}, {"measurement": "Molecules Internalized Per Cell", "setting": "[1]; 50 nM", "result": 36807}, {"measurement": "Saturation (molecules)", "setting": "[1]; H1299 Cells, peptides internalized per cell at saturation", "result": "40,400 ± 5100 molecules"}, {"measurement": "HillSlope", "setting": "[1]; Supplementary Table 3", "result": 5.657}, {"measurement": "LogIC50", "setting": "[1]; Supplementary Table 3", "result": -7.417}, {"measurement": "Top", "setting": "[1]; Supplementary Table 3, molecules per cell", "result": 40400}, {"measurement": "peptide after incubation in human serum", "setting": "[2]", "result": "only full-length peptide observed"}]}]}
